The text below walks through data of PubChem BioAssay AID328 (DTP/NCI, 2004).

Where “and” joins values, the source holds several entries; their conditions need not be identical. Equal entries are not always repeated. Inconclusive results and toxic doses are left out.

In the test the test system is BDF1 mice, P388 leukemia ip, median survival T/C. Kind of test: NCI In Vivo Anticancer Drug Screen. Data for tumor model P388 Leukemia (intraperitoneal) in B6D2F1 (BDF1) mice. Conditions: endpoint: median survival time, higher = longer survival. In short, it runs like this:
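T/C = treated-group survival ÷ vehicle-control survival; tumour transplanted into mice before dosing.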

[1] abbreviates: dose: 50.0 mg/kg/injection, schedule: Q01DX009 (ip), vehicle: saline with Tween-80.
Setting [2] is: dose: 100.0 mg/kg/injection, schedule: Q04DX003 (ip), vehicle: saline with Tween-80.
The mark [3] stands for this setting: dose: 200.0 mg/kg/injection, schedule: Q04DX003 (ip), vehicle: saline with Tween-80.
Where [4] appears, read: dose: 400.0 mg/kg/injection, schedule: Q04DX003 (ip), vehicle: saline with Tween-80.
Setting [5] is: dose: 100.0 mg/kg/injection, schedule: Q04DX003 (ip), vehicle: Klucel (hydroxypropylcellulose) (HPC).
The mark [6] stands for this setting: dose: 200.0 mg/kg/injection, schedule: Q04DX003 (ip), vehicle: Klucel (hydroxypropylcellulose) (HPC).
Setting [7] is: dose: 400.0 mg/kg/injection, schedule: Q01DX009 (ip), vehicle: saline with Tween-80.
[8] abbreviates: dose: 12.5 mg/kg/injection, schedule: Q01DX009 (ip), vehicle: saline with Tween-80.
The mark [9] stands for this setting: dose: 25.0 mg/kg/injection, schedule: Q01DX009 (ip), vehicle: saline with Tween-80.
Setting [10] is: dose: 100.0 mg/kg/injection, schedule: Q01DX009 (ip), vehicle: saline with Tween-80.
Setting [11] is: dose: 200.0 mg/kg/injection, schedule: Q01DX009 (ip), vehicle: saline with Tween-80.

Regarding `CCCCCCCC(=O)NC1CC(O[C@H]2C[C@](O)(C(=O)CO)Cc3c(O)c4c(c(O)c32)C(=O)c2c(OC)cccc2C4=O)OC(C)C1O` (some centres not stated), the T/C is, setting by setting: (dose: 0.78 mg/kg/injection, schedule: Q01DX009 (ip), vehicle: water) 104 % of control; (dose: 6.25 mg/kg/injection, schedule: Q01DX009 (ip), vehicle: water) 150 % of control; (dose: 12.5 mg/kg/injection, schedule: Q01DX009 (ip), vehicle: water) 156 % of control; (dose: 18.8 mg/kg/injection, schedule: Q04DX003 (ip), vehicle: water) 106 % of control; (dose: 25.0 mg/kg/injection, schedule: Q01DX009 (ip), vehicle: water) 177 % of control; (dose: 37.5 mg/kg/injection, schedule: Q04DX003 (ip), vehicle: water) 109 % of control. In addition, the T/C reads like this: (dose: 75.0 mg/kg/injection, schedule: Q04DX003 (ip), vehicle: water) 104 % of control and 123 % of control; (dose: 150.0 mg/kg/injection, schedule: Q04DX003 (ip), vehicle: water) 119 % of control.

For `CC(=O)CC(C)=O.CC(=O)CC(C)=O.CC(C)c1ncc[nH]1.O=N[O-].[Co]`, the T/C was 105 % of control (dose: 100.0 mg/kg/injection, schedule: Q04DX002 (ip), vehicle: saline with Tween-80) and 107 % of control (dose: 200.0 mg/kg/injection, schedule: Q04DX002 (ip), vehicle: saline with Tween-80).

For `CC(=O)CC(=O)c1ccccc1.CC(=O)CC(=O)c1ccccc1.CC(=O)CC(=O)c1ccccc1.[Co]`, the T/C by setting is: (dose: 10.0 mg/kg/injection, schedule: Q01DX001 (ip), vehicle: Klucel (hydroxypropylcellulose) (HPC)) 90 % of control; (dose: 10.0 mg/kg/injection, schedule: Q04DX003 (ip), vehicle: Klucel (hydroxypropylcellulose) (HPC)) 104 % of control; (dose: 20.0 mg/kg/injection, schedule: Q01DX001 (ip), vehicle: Klucel (hydroxypropylcellulose) (HPC)) 104 % of control; (dose: 20.0 mg/kg/injection, schedule: Q04DX003 (ip), vehicle: Klucel (hydroxypropylcellulose) (HPC)) 104 % of control; (dose: 40.0 mg/kg/injection, schedule: Q01DX001 (ip), vehicle: Klucel (hydroxypropylcellulose) (HPC)) 104 % of control; (dose: 40.0 mg/kg/injection, schedule: Q04DX003 (ip), vehicle: Klucel (hydroxypropylcellulose) (HPC)) 100 % of control.

As for `Cc1ccc(N=NN(C)C)cc1`, the T/C was 104 % of control (dose: 33.0 mg/kg/injection, schedule: Q01DX009 (ip), vehicle: saline with Tween-80) and 108 % of control under setting [1].

Turning to `OC(OCCCCCCOC(O)C(Cl)(Cl)Cl)C(Cl)(Cl)Cl` (configuration not stated), the T/C was 95 % of control under setting [2], 95 % of control under setting [3] and 90 % of control under setting [4].

For `COC(=O)C(=O)[C@@H](O)[C@H](O)[C@@H](O)CO`, the T/C was 100 % of control (dose: 100.0 mg/kg/injection, schedule: Q01DX009 (ip), vehicle: Klucel (hydroxypropylcellulose) (HPC)); 113 % of control (dose: 200.0 mg/kg/injection, schedule: Q01DX009 (ip), vehicle: Klucel (hydroxypropylcellulose) (HPC)); 109 % of control (dose: 400.0 mg/kg/injection, schedule: Q01DX009 (ip), vehicle: Klucel (hydroxypropylcellulose) (HPC)).

For the compound `CCC[CH2][Sn]([CH2]CCC)([CH2]CCC)[S]C(=S)NCCNC(=S)[S][Sn]([CH2]CCC)([CH2]CCC)[CH2]CCC`, the T/C is 113 % of control (dose: 0.78 mg/kg/injection, schedule: Q01DX010 (ip), vehicle: saline); 109 % of control (dose: 1.56 mg/kg/injection, schedule: Q01DX010 (ip), vehicle: saline); 109 % of control (dose: 3.13 mg/kg/injection, schedule: Q01DX010 (ip), vehicle: saline).

Consider `C[C@]12CC[C@H]3C(=CCc4cc(O)ccc43)[C@@H]1C/C(=N\O)C2=O`, for which the T/C (dose: 100.0 mg/kg/injection, schedule: Q01DX009 (ip), vehicle: saline) is 90 % of control; the T/C under setting [5] was 104 % of control; the T/C (dose: 200.0 mg/kg/injection, schedule: Q01DX009 (ip), vehicle: saline) was 100 % of control; the T/C under setting [6] was 95 % of control; the T/C (dose: 264.0 mg/kg/injection, schedule: Q01DX009 (ip), vehicle: saline with Tween-80) was 109 % of control; the T/C under setting [7] is 104 % of control. Further, the T/C is 95 % of control (dose: 400.0 mg/kg/injection, schedule: Q01DX009 (ip), vehicle: saline); 90 % of control (dose: 400.0 mg/kg/injection, schedule: Q04DX003 (ip), vehicle: Klucel (hydroxypropylcellulose) (HPC)); 109 % of control (dose: 600.0 mg/kg/injection, schedule: Q01DX009 (ip), vehicle: saline with Tween-80).

Take `O=C1CSc2cc[nH]c21`: the T/C by setting is: (dose: 50.0 mg/kg/injection, schedule: Q04DX003 (ip), vehicle: Klucel (hydroxypropylcellulose) (HPC)) 90 % of control; under setting [5], 90 % of control; under setting [6], 104 % of control.

Take `CNC(=S)N1N=C(C)CC1=O`: the T/C runs as follows: (dose: 37.5 mg/kg/injection, schedule: Q01DX009 (ip), vehicle: saline with Tween-80) 106 % of control; (dose: 75.0 mg/kg/injection, schedule: Q01DX009 (ip), vehicle: saline with Tween-80) 99 % of control.

As to `CN1CCCc2cccc(NC(=O)C3CCCNC3=O)c21` (configuration not stated), the T/C is 101 % of control under setting [2], 100 % of control under setting [3] and 116 % of control under setting [4].

Consider `Nc1nc(N)c2c(n1)CCCC2`, for which the T/C was 100 % of control (dose: 6.25 mg/kg/injection, schedule: Q01DX009 (ip), vehicle: saline with Tween-80); 90 % of control under setting [8]; 90 % of control under setting [9].

On to `O=NN(CCCl)C(=O)NC1CSCSC1`, for which the T/C (dose: 0.7 mg/kg/injection, schedule: Q01DX009 (ip), vehicle: saline with Tween-80) was 92 % of control; the T/C (dose: 1.7 mg/kg/injection, schedule: Q01DX009 (ip), vehicle: saline with Tween-80) was 151 % of control; the T/C (dose: 2.6 mg/kg/injection, schedule: Q01DX009 (ip), vehicle: saline with Tween-80) is 159 % of control; the T/C (dose: 3.0 mg/kg/injection, schedule: Q04DX003 (ip), vehicle: saline with Tween-80) was 119 % of control; the T/C (dose: 4.0 mg/kg/injection, schedule: Q01DX009 (ip), vehicle: saline with Tween-80) is 250 % of control and 192 % of control; the T/C (dose: 5.0 mg/kg/injection, schedule: Q04DX003 (ip), vehicle: saline with Tween-80) was 152 % of control. Besides, the T/C was 230 % of control and 250 % of control (dose: 6.0 mg/kg/injection, schedule: Q01DX009 (ip), vehicle: saline with Tween-80); 185 % of control (dose: 8.0 mg/kg/injection, schedule: Q04DX003 (ip), vehicle: saline with Tween-80); 187 % of control (dose: 9.0 mg/kg/injection, schedule: Q01DX009 (ip), vehicle: saline with Tween-80); 184 % of control (dose: 12.0 mg/kg/injection, schedule: Q01DX009 (ip), vehicle: saline with Tween-80); 272 % of control and 285 % of control (dose: 12.0 mg/kg/injection, schedule: Q04DX003 (ip), vehicle: saline with Tween-80); 204 % of control (dose: 18.0 mg/kg/injection, schedule: Q04DX003 (ip), vehicle: saline with Tween-80). For the same compound, the T/C is 90 % of control under setting [9]; 240 % of control and 172 % of control (dose: 25.0 mg/kg/injection, schedule: Q04DX003 (ip), vehicle: saline with Tween-80); 272 % of control and 95 % of control (dose: 37.0 mg/kg/injection, schedule: Q04DX003 (ip), vehicle: saline with Tween-80).

For `O=C(O)C1CC2C=CC1C2` (configuration not stated), the T/C runs as follows: under setting [8], 118 % of control; under setting [9], 113 % of control; under setting [1], 109 % of control; under setting [10], 110 % of control and 100 % of control; under setting [11], 90 % of control; under setting [7], 86 % of control.

On to `NC(=O)c1ncn[nH]1`, for which the T/C under setting [1] is 95 % of control; the T/C (dose: 50.0 mg/kg/injection, schedule: Q04DX003 (ip), vehicle: saline with Tween-80) was 104 % of control; the T/C under setting [10] was 87 % of control; the T/C under setting [2] was 100 % of control; the T/C under setting [11] was 104 % of control; the T/C under setting [3] was 100 % of control.

As to `CCCCNC(=O)Nc1ccc(N(C)C)cc1`, the T/C under setting [2] is 90 % of control, the T/C under setting [3] is 90 % of control and the T/C under setting [4] was 100 % of control.
